# Publication PMC10178127, “Immunomodulatory Effects of the Pea Defensin Psd1 in the Caco-2/Immune Cells Co-Culture upon Candida albicans Infection” (International Journal of Molecular Sciences, 2023)
# Tested on: Caco-2 polarized monolayer
# Assay: Multiplex xMAP cytokine production, Caco-2 monolayer without immune cells
# Type: cell-based, human
# Conditions: 24 h; for EGF level / Eotaxin level / FGF-2 level / FLT-3L level / Fractalkine level / G-CSF level / GM-CSF level / GROa level / IFNa2 level / IFNg level / IL-1RA level / IL-1a level / IL-1b level / IL-2 level / IL-3 level / IL-4 level / IL-5 level / IL-6 level / IL-7 level / IL-8 level / IL-9 level / IL-10 level / IL-12 (p40) level / IL-12 (p70) level / IL-13 level / IL-15 level / IL-17A level / IL-17E/IL-25 level / IL-17F level / IL-18 level / IL-22 level / IL-27 level / IP-10 level / M-GSF level / MCP-1 level / MCP-3 level / MDC level / MIG level / MIP-1a level / MIP-1b level / PDGF-AA level / PDGF-AB/BB level / RANTES level / TGF-a level / TNFa level / TNFb level / VEGFa level / sCD40L level: 2 µM apical, basolateral medium
# Experimental: To estimate the impact of Candida albicans on cytokine production by intestinal-like epithelium, Caco-2 polarized monolayer without immune cells was used. […] A decrease in concentrations of IL-13 and IL-18 was also observed.
# For growing cells, mimicking epithelial barriers in vitro, Caco-2 cells were seeded onto 24-well polycarbonate Millicell cell culture inserts (0.4 μm, 0.6 cm^2 surface area) (Millipore, Burlington, MA, USA), precoated with 0.2% bovine gelatin (Sigma-Aldrich), at a density of 2.5 × 10^5 cells/cm^2. The cells were grown for 21 days in a complete DMEM/F12 (1:1) medium with re-feeding every 2–3 days with a fresh complete medium. The integrity of the Caco-2 cell monolayer was checked by measuring the transepithelial electrical resistance (TEER) using a Millicell-ERS Voltohmmeter (Millipore). Only cell monolayers with TEER > 400 Ωcm^2 (after subtracting TEER in blank inserts without Caco-2 cells) were used in transport across epithelial monolayer and cytokine production experiments.
# Monocytes and moDCs were seeded into the wells of 48- and 24-well plates in the complete RPMI-1640 medium supplemented with 10% human AB serum (HABS, Capricorn Scientific) without antibiotics 24 h prior to the experiment, and kept in a humidified CO2-incubator (5% CO2, 37 °C). After 24 h, the medium in the wells of the 48-well plate was replaced by fresh complete RPMI-1640 medium with 10% HABS, supplemented with 2 µM of Psd1 for the sample wells or fresh medium alone for the control wells. Medium in the wells of the 24-well plate was replaced by fresh complete RPMI-1640 medium with 10% human serum without antibiotics. Then, Millicell inserts with Caco-2 monolayers with TEER > 400 Ωcm^2 were placed into the wells of the 24-well plate, containing monocytes or moDCs. Wells with Millicell inserts with Caco-2 monolayers without immune cells were used as control wells. Medium in apical chambers of Millicell inserts was replaced by fresh complete RPMI-1640 with 10% human serum medium containing Psd1 at the final concentration of 2 µM or Candida albicans at the concentration of 5 × 10^4 cells/mL or yeast cells together with the pea defensin at the same concentration. Fresh complete RPMI-1640 medium only with 10% human serum and without antibiotics was used in control wells. Plates were kept in CO2-incubator (5% CO2, 37 °C) for another 24 h. Culture supernatants from the wells of the 48-well plate and basolateral chambers of the 24-well plate were collected and stored at −70 °C degrees less than one month prior to the analytes assessment.
# The following 48 analytes were measured at a protein level by multiplex xMAP technology using the MILLIPLEX Human Cytokine/Chemokine/Growth Factor Panel A kit (HCYTA-60K-PX48, Merck, Darmstadt, Germany): sCD40L, EGF, Eotaxin-1/CCL11, FGF-2/FGF-basic, Flt-3 ligand, Fractalkine/CX3CL1, G-CSF, GM-CSF, GROα/CXCL1, IFNα2, IFNγ, IL-1α, IL-1β, IL-1RA, IL-2, IL-3, IL-4, IL-5, IL-6, IL-7, IL-8/CXCL8, IL-9, IL-10, IL-12(p40), IL-12(p70), IL-13, IL-15, IL-17A/CTLA8, IL-17E/IL-25, IL-17F, IL-18, IL-22, IL-27, IP-10/CXCL10, MCP-1/CCL2, MCP-3/CCL7, M-CSF, MDC/CCL22, MIG/CXCL9, MIP-1α/CCL3, MIP-1β/CCL4, PDGF-AA, PDGF-AB/BB, RANTES/CCL5, TGFα, TNFα, TNFβ, and VEGF-A. Multiplex-based assay read-out was performed using the MAGPIX system (Merck) with the xPONENT 4.2 software (Merck) in accordance with the manufacturer’s instruction with overnight incubation of the samples with primary antibodies. A final analysis was carried out with the MILLIPLEX Analyst v5.1 software (Merck). Measurements were performed twice for each sample. Release of the analytes in control and experimental samples was compared with an unpaired two-sample t-test using GraphPad Prism v.8.0.1 (GraphPad Software, Inc., San Diego, CA, USA). The p values ≤ 0.05 were considered significant.
substance,measurement,setting,value
"Psd1: pea defensin from Pisum sativum (UNIPROT P81929), recombinant peptide overexpressed in Escherichia coli (KTCEHLADTYRGVCFTNASCDDHCKNKAHLISGTCHNWKCFCTQNC; UniProt P81929 1-46, looked up)",EGF level,Caco-2+Candida+Psd1,1.19 pg/mL
same,Eotaxin level,Caco-2+Candida+Psd1,<3.52↓ pg/ml
same,FGF-2 level,Caco-2+Candida+Psd1,<13.35↓ pg/ml
same,FLT-3L level,Caco-2+Candida+Psd1,<0.40↓ pg/ml
same,Fractalkine level,Caco-2+Candida+Psd1,<17.82↓ pg/ml
same,G-CSF level,Caco-2+Candida+Psd1,<3.01↓ pg/ml
same,GM-CSF level,Caco-2+Candida+Psd1,<0.89↓ pg/ml
same,GROa level,Caco-2+Candida+Psd1,34.82 pg/mL
same,IFNa2 level,Caco-2+Candida+Psd1,<4.56↓ pg/ml
same,IFNg level,Caco-2+Candida+Psd1,<2.23↓ pg/ml
same,IL-1RA level,Caco-2+Candida+Psd1,<0.66↓ pg/ml
same,IL-1a level,Caco-2+Candida+Psd1,<3.42↓ pg/ml
same,IL-1b level,Caco-2+Candida+Psd1,<2.26↓ pg/ml
same,IL-2 level,Caco-2+Candida+Psd1,<0.95↓ pg/ml
same,IL-3 level,Caco-2+Candida+Psd1,<0.60↓ pg/ml
same,IL-4 level,Caco-2+Candida+Psd1,<1.14↓ pg/ml
same,IL-5 level,Caco-2+Candida+Psd1,<0.30↓ pg/ml
same,IL-6 level,Caco-2+Candida+Psd1,0.67 pg/mL
same,IL-7 level,Caco-2+Candida+Psd1,<0.38↓ pg/ml
same,IL-8 level,Caco-2+Candida+Psd1,4.2 pg/mL
same,IL-9 level,Caco-2+Candida+Psd1,<2.08↓ pg/ml
same,IL-10 level,Caco-2+Candida+Psd1,<1.24↓ pg/ml
same,IL-12 (p40) level,Caco-2+Candida+Psd1,<3.56↓ pg/ml
same,IL-12 (p70) level,Caco-2+Candida+Psd1,<1.68↓ pg/ml
same,IL-13 level,Caco-2+Candida+Psd1,<2.61↓ pg/ml
same,IL-15 level,Caco-2+Candida+Psd1,<1.43↓ pg/ml
same,IL-17A level,Caco-2+Candida+Psd1,<2.09↓ pg/ml
same,IL-17E/IL-25 level,Caco-2+Candida+Psd1,<18.85↓ pg/ml
same,IL-17F level,Caco-2+Candida+Psd1,<19.03↓ pg/ml
same,IL-18 level,Caco-2+Candida+Psd1,2.95 pg/mL
same,IL-22 level,Caco-2+Candida+Psd1,<5.23↓ pg/ml
same,IL-27 level,Caco-2+Candida+Psd1,<11.43↓ pg/ml
same,IP-10 level,Caco-2+Candida+Psd1,5.8 pg/mL
same,M-GSF level,Caco-2+Candida+Psd1,<24.28↓ pg/ml
same,MCP-1 level,Caco-2+Candida+Psd1,<2.03↓ pg/ml
same,MCP-3 level,Caco-2+Candida+Psd1,<4.18↓ pg/ml
same,MDC level,Caco-2+Candida+Psd1,<0.30↓ pg/ml
same,MIG level,Caco-2+Candida+Psd1,<3.51↓ pg/ml
same,MIP-1a level,Caco-2+Candida+Psd1,<1.88↓ pg/ml
same,MIP-1b level,Caco-2+Candida+Psd1,<0.16↓ pg/ml
same,PDGF-AA level,Caco-2+Candida+Psd1,160.02 pg/mL
same,PDGF-AB/BB level,Caco-2+Candida+Psd1,<5.84↓ pg/ml
same,RANTES level,Caco-2+Candida+Psd1,<0.62↓ pg/ml
same,TGF-a level,Caco-2+Candida+Psd1,<0.63↓ pg/ml
same,TNFa level,Caco-2+Candida+Psd1,<3.89↓ pg/ml
same,TNFb level,Caco-2+Candida+Psd1,1.64 pg/mL
same,VEGFa level,Caco-2+Candida+Psd1,197.1 pg/mL
same,sCD40L level,Caco-2+Candida+Psd1,<4.88↓ pg/ml
same,EGF level,Caco-2+Psd1,1.19 pg/mL
same,Eotaxin level,Caco-2+Psd1,<3.52↓ pg/ml
same,FGF-2 level,Caco-2+Psd1,<13.35↓ pg/ml
same,FLT-3L level,Caco-2+Psd1,0.46 pg/mL
same,Fractalkine level,Caco-2+Psd1,<17.82↓ pg/ml
same,G-CSF level,Caco-2+Psd1,<3.01↓ pg/ml
same,GM-CSF level,Caco-2+Psd1,<0.89↓ pg/ml
same,GROa level,Caco-2+Psd1,27.77 pg/mL
same,IFNa2 level,Caco-2+Psd1,<4.56↓ pg/ml
same,IFNg level,Caco-2+Psd1,<2.23↓ pg/ml
same,IL-1RA level,Caco-2+Psd1,<0.66↓ pg/ml
same,IL-1a level,Caco-2+Psd1,3.99 pg/mL
same,IL-1b level,Caco-2+Psd1,<2.26↓ pg/ml
same,IL-2 level,Caco-2+Psd1,<0.95↓ pg/ml
same,IL-3 level,Caco-2+Psd1,<0.60↓ pg/ml
same,IL-4 level,Caco-2+Psd1,2.07 pg/mL
same,IL-5 level,Caco-2+Psd1,<0.30↓ pg/ml
same,IL-6 level,Caco-2+Psd1,2.29 pg/mL
same,IL-7 level,Caco-2+Psd1,<0.38↓ pg/ml
same,IL-8 level,Caco-2+Psd1,11.44 pg/mL
same,IL-9 level,Caco-2+Psd1,<2.08↓ pg/ml
same,IL-10 level,Caco-2+Psd1,<1.24↓ pg/ml
same,IL-12 (p40) level,Caco-2+Psd1,<3.56↓ pg/ml
same,IL-12 (p70) level,Caco-2+Psd1,<1.68↓ pg/ml
same,IL-13 level,Caco-2+Psd1,6.35 pg/mL
same,IL-15 level,Caco-2+Psd1,<1.43↓ pg/ml
same,IL-17A level,Caco-2+Psd1,<2.09↓ pg/ml
same,IL-17E/IL-25 level,Caco-2+Psd1,<18.85↓ pg/ml
same,IL-17F level,Caco-2+Psd1,<19.03↓ pg/ml
same,IL-18 level,Caco-2+Psd1,3.42 pg/mL
same,IL-22 level,Caco-2+Psd1,<5.23↓ pg/ml
same,IL-27 level,Caco-2+Psd1,<11.43↓ pg/ml
same,IP-10 level,Caco-2+Psd1,7.04 pg/mL
same,M-GSF level,Caco-2+Psd1,<24.28↓ pg/ml
same,MCP-1 level,Caco-2+Psd1,<2.03↓ pg/ml
same,MCP-3 level,Caco-2+Psd1,<4.18↓ pg/ml
same,MDC level,Caco-2+Psd1,<0.30↓ pg/ml
same,MIG level,Caco-2+Psd1,<3.51↓ pg/ml
same,MIP-1a level,Caco-2+Psd1,<1.88↓ pg/ml
same,MIP-1b level,Caco-2+Psd1,<0.16↓ pg/ml
same,PDGF-AA level,Caco-2+Psd1,347.49 pg/mL
same,PDGF-AB/BB level,Caco-2+Psd1,<5.84↓ pg/ml
same,RANTES level,Caco-2+Psd1,<0.62↓ pg/ml
same,TGF-a level,Caco-2+Psd1,0.67 pg/mL
same,TNFa level,Caco-2+Psd1,<3.89↓ pg/ml
same,TNFb level,Caco-2+Psd1,5.02 pg/mL
same,VEGFa level,Caco-2+Psd1,413.86 pg/mL
same,sCD40L level,Caco-2+Psd1,<4.88↓ pg/ml
same,"IL-6, IL-8/CXCL8, and IP-10 production","Caco-2, 2 μM apical",increase
same,direct immunomodulatory action on epithelial cells,"Caco-2, 2 μM apical",no significant direct immunomodulatory action
